Experimental data: US20260248863A1, “METHODS AND MATERIALS FOR TREATING GASTROINTESTINAL DISORDERS” (Mayo Foundation for Medical Education and Research, priority 2020, published 2026)

Tests used:
Caco-2 monolayers [1] = assay: Transepithelial resistance (TER) drop induced by high PA fecal supernatants on Caco-2 monolayers; format: cell-based
Procedure: (§1) Apical addition of high PA fecal supernatants on Caco-2 monolayers caused a drop in transepithelial resistance (TER) which was not seen with low PA supernatant (FIG. 16A). […] Since pancreatic elastases were found as the most abundant proteases driving the fecal PA, their effects on barrier were tested.

Caco-2 monolayers [2] = assay: Texas red dextran flux across Caco-2 monolayers; format: cell-based
Procedure: as §1

**Q.** `CC(C)CC(=O)N1CCN(C(=O)CCCCCN)CC1` [ENMD1068] was tested. Which “effect of high PA fecal supernatant on TER (in words)” value (Caco-2 monolayers [1]; FIG. 18, n=5/group, p<0.05) did it give?
**A.** Its value is “blocks”.

**Q.** And the “inhibition of TER drop induced by high PA fecal supernatants” value (Caco-2 monolayers [1]; preincubation of Caco-2 monolayer, 150 μM)?
**A.** Its value is 45%.

**Q.** How did the effect on barrier (Caco-2 monolayers [2]) turn out when Trypsin was run?
**A.** Its effect on barrier is “had an effect on barrier”.

**Q.** What does the source list for `CC(C)C[C@H](NC(=O)[C@H]1O[C@@H]1C(=O)O)C(=O)NCCCCN=C(N)N` [E64]?
**A.** inhibition of fecal supernatant induced TER drop (Caco-2 monolayers [1]; apical preincubation, 0.1 mM E64, Caco-2 monolayers, FIG. 17A): not; reduction of increased paracellular (Texas red dextran) flux caused by high PA supernatants (Caco-2 monolayers [2]; apical preincubation, 0.1 mM E64, Caco-2 monolayers, FIG. 17B): not

**Q.** With “porcine pancreatic elastase: porcine pancreatic elastase, protease tested for effects on barrier” as the compound, how does the “Texas red dextran flux, 24 hour basolateral concentration” value (Caco-2 monolayers [2]; 1 mM, Caco-2 monolayers, control 0.1 μg/mL, n=4/group, p<0.05) read?
**A.** The value was 5.9 µg/mL.
